Experimental data as given in ChEMBL document CHEMBL1142408, “Synthesis and biological evaluation of 10,11-dihydrodictyostatin, a potent analogue of the marine anticancer agent dictyostatin” (J Nat Prod, 2008).
Activity calls are given as the source filed them. No cut-off for these calls is given here.

Experiments:
Type in all cases: functional, cell-based
[1] = tested on: P388; test: Cytotoxicity against mouse P388 cells by MTT assay
[2] = tested on: ASPC1; test: Cytotoxicity against human AsPC1 cells after 72 hrs by MTT assay; details: ASPC1, 72 h
[3] = Cytotoxicity against taxol-resistant human NCI/ADR cells after 72 hrs by MTT assay; details: NCI/ADR-RES
[4] = tested on: PANC-1; test: Cytotoxicity against human PANC1 cells after 72 hrs by MTT assay; details: PANC-1, 72 h
[5] = tested on: DLD-1; test: Cytotoxicity against human DLD1 cells after 72 hrs by MTT assay; details: DLD-1, 72 h
[6] = tested on: PANC-1; test: Microtubule polymerization in human PANC1 cells
[7] = tested on: PANC-1; test: Cell cycle arrest in human PANC1 cells assessed as accumulation at G2/M phase after 24 hrs

Row | SMILES | IC50 [1] | IC50 [2] | IC50 [3] | IC50 [4] | IC50 [5] | Activity [6] | Activity [7]
1 | C=C/C=C\[C@H](C)[C@H](OC(N)=O)[C@@H](C)[C@H](O)[C@@H](C)C/C(C)=C\[C@H](C)[C@@H](O)[C@@H](C)/C=C\[C@@H](O)C[C@@H]1OC(=O)[C@H](C)[C@@H](O)[C@H]1C [DISERMOLIDE] | 35 nM | 98 nM | 160 nM | 59 nM | 29 nM | – | –
2 | CC(=O)O[C@H]1C(=O)[C@@]2(C)[C@H]([C@H](OC(=O)c3ccccc3)[C@]3(O)C[C@H](OC(=O)[C@H](O)[C@@H](NC(=O)c4ccccc4)c4ccccc4)C(C)=C1C3(C)C)[C@]1(OC(C)=O)CO[C@@H]1C[C@@H]2O [PACLITAXEL] | – | 20 nM | 1000 nM | 7 nM | 11 nM | – | –
3 | C=C/C=C\[C@H](C)[C@@H]1OC(=O)/C=C\C=C\[C@@H](C)[C@@H](O)C[C@H](O)/C=C\[C@H](C)[C@H](O)[C@@H](C)C[C@@H](C)CC[C@@H](O)[C@@H]1C [DICTYOSTATIN] | – | 9 nM | 9.8 nM | 3.4 nM | 0.8 nM | – | –
4 | C=C/C=C\[C@H](C)[C@@H]1OC(=O)/C=C\C=C\[C@@H](C)[C@@H](O)C[C@H](O)CC[C@H](C)[C@H](O)[C@@H](C)C[C@@H](C)CC[C@@H](O)[C@@H]1C | – | 43 nM | 300 nM | 18 nM | 10 nM | Active | Active
